Reference: patent EP1480941B1, “UREA DERIVATIVES AS HIV ASPARTYL PROTEASE INHIBITORS” (priority 2002, dated 2003)
Where two headings read alike, the source gives them in different places.

Biological target: HIV protease (Human immunodeficiency virus type 1 group M subtype B, UniProt P04585)
Assay: Enzymatic (fluorometric FRET) assay for determining the inhibition constant (Ki)
Format: biochemical
Conditions: EDANS/DABCYL substrate, equation of Henderson
From the text: Enzymatic assay for determining the inhibition constant (Ki) of synthetic compounds targeting the HIV protease
This is a fluorometric assay based on the cleavage by protease of a substrate carrying a donor group (EDANS) and an acceptor group (DABCYL) on each side of the cleavage site, interacting together through fluorescence resonance energy transfer (FRET) as described by Matayoshi et al. (Science 247:[…], 1990).
After calculation of Vo and Vi, the inhibition constant (Ki) of the compound is determined using the equation of Henderson: (Vo)/(Vi) = 1 + ([I])/(Kiapp) Where Ki = (Kiapp)/((1 + [S])/(Km)) [formula] where Vo = the enzyme's initial velocity Vi = the enzyme velocity in the presence of the inhibitory compound, [I] = inhibitor concentration, [S] = substrate concentration, Km = Michaelis-Menten constant and Kiapp = apparent Ki
Graphs are traced and the Ki determined using GraphPad Prism software v. 3.0.

SMILES	Ki (Ki)	Ki (read-out: Ki)	further results
CC(C)CCN([C@H](CO)CCCCNC(=O)N(Cc1ccccc1)Cc1ccc2c(c1)OCO2)S(=O)(=O)c1ccc(N)cc1 [Example 101, (2S) 2-N-(4-aminobenzenesulfonyl)-2-N-(3-methylbutyl)-6-N-[N'-benzyl-N'-piperonylaminocarbonyl]-2,6-diaminohexanol]	0.0041 µM		
CC(C)CN([C@H](CO)CCCCNC(=O)N(Cc1cccnc1)Cc1ccccc1F)S(=O)(=O)c1ccc(N)cc1 [Example 73, (2S) 2-N-(4-aminobenzenesulfonyl)-2-N-isobutyl-6-N-[N'-(2-fluorobenzyl)-N'-(3-picolyl)aminocarbonyl]-2,6-diaminohexanol]		> 0.3 µM	
Cc1ccc(S(=O)(=O)N(CC(C)C)[C@@H](CCCCNC(=O)NCCN2CCCCC2)C(=O)O)cc1 [Example 17, Nα-isobutyl-Nα-(4-methylbenzenesulfonyl)-N∈-[2'-(1-pyperidinyl)ethylaminocarbonyl]-L-lysine]		> 0.3 µM	
Cc1ccc(S(=O)(=O)N(CC(C)C)C(CCCCNC(=N)NCc2ccccc2)C(=O)O)cc1 (racemic) [Example 30, Nα-isobutyl-Nα-(4-methylbenzenesulfonyl)-Nω-benzyl-DL-homoarginine]		> 0.3 µM	
Cc1ccc(S(=O)(=O)N(CC(C)C)[C@@H](CCCCNC(=O)N[C@@H](Cc2ccccc2)C(=O)NCC(C)C)C(=O)O)cc1 [Example 12, Nα-isobutyl-Nα-(4-methylbenzenesulfonyl)-N∈-(L-phenylalanyl-N'-isobutylamide-N'α-carbonyl)-L-lysine]	0.047 µM		
Cc1ccc(S(=O)(=O)N(CC(C)C)[C@@H](CCCCNC(=O)N(CC(C)C)C2CCCCC2)C(=O)O)cc1 [Example 7, Nα-isobutyl-Nα-(4-methylbenzenesulfonyl)-N∈-[(N'-cyclohexyl-N'-isobutyl)aminocarbonyl]-L-lysine]		> 0.3 µM	
Cc1ccc(S(=O)(=O)N(CC(C)C)[C@@H](CCCCNC(=O)N[C@@H](Cc2ccccc2)C(=O)Nc2ccccc2)C(=O)O)cc1 [Example 13, Nα-isobutyl-Nα-(4-methylbenzenesulfonyl)-N∈-(L-phenylalanyl-N'-phenylamide-N'α-carbonyl)-L-lysine]	0.06 µM		
CC(C)CN([C@H](CO)CCCCNC(=O)N(Cc1ccccc1)Cc1cccc2c1OCO2)S(=O)(=O)c1ccc(N)cc1 [Example 91, (2S) 2-N-(4-aminobenzenesulfonyl)-2-N-isobutyl-6-N-[N'-benzyl-N'-(2,3-methylenedioxy)benzylaminocarbonyl]-2,6-diaminohexanol]	0.0054 µM		
Cc1ccc(S(=O)(=O)N(CC(C)C)[C@H](CCCCNC(=O)N[C@@H]2CCc3ccccc32)C(=O)O)cc1 [Example 27, (1R,1'R) Nα-isobutyl-Nα-(4-methylbenzenesulfonyl)-N∈-(indanyl-1'-aminocarbonyl)-R-lysine]			Ki: > 0.3 µM
Cc1ccc(S(=O)(=O)N(CC(C)C)[C@@H](CCCCNC(=O)N[C@@H](Cc2ccccc2)C(N)=O)C(=O)O)cc1 [Example 8, Nα-isobutyl-Nα-(4-methylbenzenesulfonyl)-N∈-[L-phenylalanylamide-N'a-carbonyl]-L-lysine]	0.06 µM		
COc1ccc(CN(Cc2ccc3c(c2)OCO3)C(=S)NCCCC[C@@H](CO)N(CCC(C)C)S(=O)(=O)c2ccc(N)cc2)cc1OC [Example 106, (2S) 2-N-(4-aminobenzenesulfonyl)-2-N-(3-methylbutyl)-6-N-[N'-(3,4-dimethoxybenzyl)-N'-piperonylaminothiocarbonyl]-2,6-diaminohexanol]	0.0029 µM		
Cc1ccc(S(=O)(=O)N(CC(C)C)[C@@H](CCCCNC(=O)NNC(=O)c2ccccc2O)C(=O)O)cc1 [Example 10, Nα-isobutyl-Nα-(4-methylbenzenesulfonyl)-N∈-[N2-(2-hydroxybenzoyl)-hydrazino-N1-carbonyl]-L-lysine]	0.055 µM		
Cc1ccc(S(=O)(=O)N(CC(C)C)[C@@H](CCCCNC(=O)Nc2nccc3ccccc23)C(=O)O)cc1 [Example 20, Nα-isobutyl-Nα-(4-methylbenzenesulfonyl)-N∈-(1'-isoquinolylaminocarbonyl)-L-lysine]		> 0.3 µM	
